Measurements reported in ChEMBL document CHEMBL1157734, “Design and synthesis of novel bis-oximinoalkanoic acids as potent PPAR alpha agonists” (Bioorg Med Chem Lett, 2010).
Activity calls are given as the source filed them. The calls are words filed in the database; no cut-off is given here.

Legend:
[1] = target: T1, Peroxisome proliferator-activated receptor alpha (Homo sapiens) (UniProt Q07869); assay: Agonist activity at human full length PPARalpha expressed in human HepG2 cells co-transfected with PPRE3-TK-luc assessed as […] by firefly luciferase assay relative to WY-14643; format: functional, cell-based; design: concentration or dose not given beside the values
T1 sequence (whole entry): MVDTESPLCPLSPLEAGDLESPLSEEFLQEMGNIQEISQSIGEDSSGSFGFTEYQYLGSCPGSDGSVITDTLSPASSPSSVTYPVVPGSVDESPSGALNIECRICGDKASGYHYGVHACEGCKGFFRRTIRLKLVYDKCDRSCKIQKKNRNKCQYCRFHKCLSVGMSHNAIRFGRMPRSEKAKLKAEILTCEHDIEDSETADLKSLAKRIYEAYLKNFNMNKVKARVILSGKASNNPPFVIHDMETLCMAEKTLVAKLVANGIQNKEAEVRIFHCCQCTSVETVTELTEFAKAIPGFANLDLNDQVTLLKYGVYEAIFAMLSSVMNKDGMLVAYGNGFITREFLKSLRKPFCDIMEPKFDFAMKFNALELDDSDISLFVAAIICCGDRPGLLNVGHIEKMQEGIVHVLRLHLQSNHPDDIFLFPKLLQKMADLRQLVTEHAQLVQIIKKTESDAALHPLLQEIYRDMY

[2] = test system: Mus musculus; assay: Reduction in serum triglyceride level in Swiss albino mouse at 10 mg/kg/day for 6 days relative to control; format: functional; design: scale not given: the % may be the effect or the level left
[3] = target: T2, Peroxisome proliferator-activated receptor gamma (Homo sapiens, UniProt P37231); assay: Agonist activity at human full length PPARgamma expressed in human HepG2 cells co-transfected with PPRE3-TK-luc assessed as […] by firefly luciferase assay; format: functional, cell-based
T2 sequence (P37231 whole entry): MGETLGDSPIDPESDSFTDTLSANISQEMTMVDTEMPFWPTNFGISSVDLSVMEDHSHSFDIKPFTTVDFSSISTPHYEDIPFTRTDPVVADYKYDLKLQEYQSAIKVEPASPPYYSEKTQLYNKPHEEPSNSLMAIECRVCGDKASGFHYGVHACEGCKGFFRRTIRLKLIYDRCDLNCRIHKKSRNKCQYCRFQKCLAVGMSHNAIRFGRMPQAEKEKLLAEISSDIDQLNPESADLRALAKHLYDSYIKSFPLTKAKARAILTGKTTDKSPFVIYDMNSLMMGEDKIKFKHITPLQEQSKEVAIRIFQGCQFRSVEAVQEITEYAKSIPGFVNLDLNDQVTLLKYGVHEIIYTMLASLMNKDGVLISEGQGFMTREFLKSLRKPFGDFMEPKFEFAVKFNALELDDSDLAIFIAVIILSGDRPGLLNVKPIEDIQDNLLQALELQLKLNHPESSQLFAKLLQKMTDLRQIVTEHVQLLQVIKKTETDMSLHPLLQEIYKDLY

[4] = target: T3, Peroxisome proliferator-activated receptor alpha (Homo sapiens, UniProt Q07869); assay: Agonist activity at human full length PPARalpha expressed in human HepG2 cells co-transfected with PPRE3-TK-luc assessed as […] by firefly luciferase assay; format: functional, cell-based
T3 sequence (Q07869 whole entry): T1 sequence (whole entry)

[5] = target: T4, Peroxisome proliferator-activated receptor delta (Homo sapiens) (UniProt Q03181); assay: Agonist activity at human full length PPARdelta expressed in human HepG2 cells co-transfected with PPRE3-TK-luc assessed as […] at 1 uM by firefly luciferase assay; format: functional, cell-based
T4 sequence (whole entry): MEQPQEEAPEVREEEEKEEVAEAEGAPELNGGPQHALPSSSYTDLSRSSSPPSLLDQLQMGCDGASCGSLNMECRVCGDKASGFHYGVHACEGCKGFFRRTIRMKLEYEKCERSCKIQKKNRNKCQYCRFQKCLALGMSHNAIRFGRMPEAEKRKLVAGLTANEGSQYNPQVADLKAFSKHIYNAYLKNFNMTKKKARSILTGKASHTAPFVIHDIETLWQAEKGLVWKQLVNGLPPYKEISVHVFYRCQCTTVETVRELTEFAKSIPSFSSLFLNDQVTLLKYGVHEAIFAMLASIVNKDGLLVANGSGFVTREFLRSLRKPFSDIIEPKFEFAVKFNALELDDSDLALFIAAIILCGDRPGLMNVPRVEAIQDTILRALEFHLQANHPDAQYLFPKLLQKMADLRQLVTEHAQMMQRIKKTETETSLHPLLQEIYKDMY

[6] = organism: Homo sapiens; assay: Selectivity for human full length PPARalpha over human full length PPARgamma

| SMILES | Activity [1] [%] | Activity [2] [%] | EC50 ([3]; read-out: EC50) [nM] | EC50 [4] [nM] | Activity [5] | Ratio [6] | EC50 ([3]; hepg2) |
| --- | --- | --- | --- | --- | --- | --- | --- |
| C/C(=N\OCCCCO/N=C(/CCC(=O)O)c1ccccc1)c1ccc(C(F)(F)F)cc1 | 79 | 0.6 | 1400 | 400 | inactive |  |  |
| C/C(=N\OCCCCO/N=C(/CCC(=O)O)c1ccccc1)c1ccc2ccccc2c1 | 61 | 25 | 200 | 30 | inactive | 6 |  |
| C/C(=N\OCCCCO/N=C(/CCC(=O)O)c1ccccc1)c1ccc2c(c1)CCCC2 | 86 | 36 | 200 | 3 | inactive |  |  |
| C/C(=N\OCCCCO/N=C(/CCC(=O)O)c1ccccc1)c1ccc(C)cc1 | 78 | 13 | 2100 | 50 | inactive |  |  |
| C/C(=N\OCCCCO/N=C(/CCC(=O)O)c1ccccc1)c1ccc(F)cc1 | 101 | 18 | 1400 | 50 | inactive |  |  |
| COc1cc(/C(C)=N/OCCCCO/N=C(/CCC(=O)O)c2ccccc2)ccc1C | 257 | 36 | 1600 | 5 | inactive |  |  |
| CCCCc1cccc(/C(C)=N/OCCCCO/N=C(/CCC(=O)O)c2ccccc2)c1 | 85 | 31 | 200 | 500 | inactive |  |  |
| COc1ccc(/C(C)=N/OCCCCO/N=C(/CCC(=O)O)c2ccccc2)cc1 | 102 | 35 | 1100 | 10 | inactive | 110 |  |
| C/C(=N\OCCCCO/N=C(/CCC(=O)O)c1ccccc1)c1ccc(C)c(C)c1 | 89 | 12 | 1000 | 2 | inactive | 320 |  |
| C/C(=N\OCCCCO/N=C(/CCC(=O)O)c1ccccc1)c1ccccc1 | 46 |  |  | 2300 | inactive |  | Not Active |
| COc1cc(/C(C)=N/OCCCCO/N=C(/CCC(=O)O)c2ccccc2)ccc1F | 122 | 19 | 700 | 400 | inactive |  |  |
| COc1ccc(/C(C)=N/OCCCCO/N=C(/CCC(=O)O)c2ccccc2)cc1OC | 136 | 30 | 800 | 100 | inactive |  |  |
| Cc1oc(-c2ccccc2)nc1COc1ccc(CO/N=C(\CCC(=O)O)c2ccccc2)cc1 [IMIGLITAZAR] | 116 | 37 |  | 5 | inactive |  |  |
| C/C(=N\OCCCCO/N=C(/CCC(=O)O)c1ccccc1)c1ccc(S(C)(=O)=O)cc1 | 41 | 14 | 1900 | 2400 | inactive |  |  |
| C/C(=N\OCCCCO/N=C(/CCC(=O)O)c1ccccc1)c1cccc(-c2ccccc2)c1 | 83 | 23 | 100 | 20 | inactive |  |  |
